The subject of one assay is LOX IMVI. Put plainly: NCI COMPARE panel (SRB growth inhibition), LOX IMVI. The note with it: Homo sapiens, Melanoma, 48 h. The assay is classed as cell-based. As for the experimental part: (§1) The human tumor cell lines of the cancer screening panel are grown in RPMI 1640 medium containing 5% fetal bovine serum and 2 mM L-glutamine. For a typical screening experiment, cells are inoculated into 96 well microtiter plates in 100 µL at plating densities ranging from 5,000 to 40,000 cells/well depending on the doubling time of individual cell lines. After cell inoculation, the microtiter plates are incubated at 37° C., 5% CO2, 95% air and 100% relative humidity for 24 h prior to addition of experimental drugs.
(§2) After 24 h, two plates of each cell line are fixed in situ with TCA, to represent a measurement of the cell population for each cell line at the time of drug addition (Tz). Experimental drugs are solubilized in dimethyl sulfoxide at 400-fold the desired final maximum test concentration and stored frozen prior to use. […]
(§3) Following drug addition, the plates are incubated for an additional 48 h at 37° C., 5 % CO2, 95% air, and 100% relative humidity. […] Bound stain is subsequently solubilized with 10 mM trizma base, and the absorbance is read on an automated plate reader at a wavelength of 515 nm. […] Using the seven absorbance measurements [time zero, (Tz), control growth, (C), and test growth in the presence of drug at the five concentration levels (Ti)], the percentage growth is calculated at each of the drug concentrations levels. Percentage growth inhibition is calculated as: […]

The subject of a further assay is CAKI-1. As to the kind of experiment: NCI COMPARE panel (SRB growth inhibition), CAKI-1. The following applies: Homo sapiens; Renal Cancer, CAKI-1, 48 h. The assay is classed as cell-based. How it is done:
as §1, §2, §3

The test system of the next assay is U251. As to the kind of experiment: NCI COMPARE panel (SRB growth inhibition), U251. The assay is classed as cell-based. The following applies: Homo sapiens, U-251; CNS Cancer, U251, 48 h. How it is done: as §1, §2, §3
The next assay concerns the target PI3Kα (Homo sapiens, UniProt P42336). As to the kind of experiment: Z'-LYTE / Adapta biochemical kinase assay, PI3Kα. The following applies: for inhibition at 0.1 µM: concentration of 100 nM/liter, read-out: Percent Inhibition of target enzymes, PI3K A. From the text:
The Z′-LYTE® biochemical assay employs a fluorescence-based, coupled-enzyme format and is based on the differential sensitivity of phosphorylated and non-phosphorylated peptides to proteolytic cleavage. The peptide substrate is labeled with two fluorophores—one at each end—that make up a FRET pair. In the primary reaction, the kinase transfers the gamma-phosphate of ATP to a single tyrosine, serine or threonine residue in a synthetic FRET-peptide. In the secondary reaction, a site-specific protease recognizes and cleaves non-phosphorylated FRET-peptides. Phosphorylation of FRET-peptides suppresses cleavage by the Development Reagent. Cleavage disrupts FRET between the donor (i.e., coumarin) and acceptor (i.e., fluorescein) fluorophores on the FRET-peptide, whereas uncleaved, phosphorylated FRET-peptides maintain FRET. A ratiometric method, which calculates the ratio (the Emission Ratio) of donor emission to acceptor emission after excitation of the donor fluorophore at 400 nm, is used to quantitate reaction progress.
A significant benefit of this ratiometric method for quantitating reaction progress is the elimination of well-to-well variations in FRET-peptide concentration and signal intensities. As a result, the assay yields very high Z′-factor values (>0.7) at a low percent phosphorylation.
Both cleaved and uncleaved FRET-peptides contribute to the fluorescence signals and therefore to the Emission Ratio. The extent of phosphorylation of the FRET-peptide can be calculated from the Emission Ratio. The Emission Ratio will remain low if the FRET-peptide is phosphorylated (i.e., no kinase inhibition) and will be high if the FRET-peptide is non-phosphorylated (i.e., kinase inhibition).
Enzyme: The ADAPTA universal kinase assay is a homogenous, fluorescent based immunoassay for the detection of ADP. In contrast to ATP depletion assays, the ADAPTA assay is extremely sensitive to ADP formation such that a majority of the signal change occurs in the first 10-20% conversion of ATP to ADP. This makes the ADAPTA universal kinase assay ideally suited for use with low activity kinases.
The principle of the ADAPTA universal kinase assay is outlined below. The assay itself can be divided into two phases: a kinase reaction phase, and an ADP detection phase. In the kinase reaction phase, all components required for the kinase reaction are added to the well, and the reaction is allowed to incubate for 60 minutes. After the reaction, a detection solution consisting of a europium labeled anti-ADP antibody, an Alexa Fluor® 647 labeled ADP tracer, and EDTA (to stop the kinase reaction) is added to the assay well. ADP formed by the kinase reaction (in the absence of an inhibitor) will displace the Alexa Fluor® 647 labeled ADP tracer from the antibody, resulting in a decrease in the TR-FRET signal. In the presence of an inhibitor, the amount of ADP formed by the kinase reaction is reduced, and the resulting intact antibody-tracer interaction results in a high TR-FRET signal.
Test Compounds: The Test Compounds are screened in 1% DMSO (final) in the well. For 10 point titrations, 3-fold serial dilutions are conducted from the starting concentration of the customer’s choosing.
Peptide/Kinase Mixtures: All Peptide/Kinase Mixtures are diluted to a 2X working concentration in the appropriate Kinase Buffer.
ATP Solution: All ATP Solutions are diluted to a 4X working concentration in Kinase Buffer (50 mM HEPES pH 7.5, 0.01% BRIJ-35, 10 mM MgCl2,1 mM EGTA). ATP Km apparent is previously determined using a Z′-LYTE® assay.
Development Reagent Solution: The Development Reagent is diluted in Development Buffer.
Assay Protocol: Bar-coded Corning, low volume NBS, black 384-wellplate (Corning Cat. #4514) 1. 2.5 µL - 4X Test Compound or 100 nL 100X plus 2.4 µL kinase buffer. 2. 5 µL - 2X Peptide/Kinase Mixture. 3. 2.5 µL - 4X ATP Solution. 4. 30-second plate shake. 5. 60-minute Kinase Reaction incubation at room temperature. 6. 5 µL - Development Reagent Solution. 7. […]

PI3Kα, sequence (P42336 whole entry): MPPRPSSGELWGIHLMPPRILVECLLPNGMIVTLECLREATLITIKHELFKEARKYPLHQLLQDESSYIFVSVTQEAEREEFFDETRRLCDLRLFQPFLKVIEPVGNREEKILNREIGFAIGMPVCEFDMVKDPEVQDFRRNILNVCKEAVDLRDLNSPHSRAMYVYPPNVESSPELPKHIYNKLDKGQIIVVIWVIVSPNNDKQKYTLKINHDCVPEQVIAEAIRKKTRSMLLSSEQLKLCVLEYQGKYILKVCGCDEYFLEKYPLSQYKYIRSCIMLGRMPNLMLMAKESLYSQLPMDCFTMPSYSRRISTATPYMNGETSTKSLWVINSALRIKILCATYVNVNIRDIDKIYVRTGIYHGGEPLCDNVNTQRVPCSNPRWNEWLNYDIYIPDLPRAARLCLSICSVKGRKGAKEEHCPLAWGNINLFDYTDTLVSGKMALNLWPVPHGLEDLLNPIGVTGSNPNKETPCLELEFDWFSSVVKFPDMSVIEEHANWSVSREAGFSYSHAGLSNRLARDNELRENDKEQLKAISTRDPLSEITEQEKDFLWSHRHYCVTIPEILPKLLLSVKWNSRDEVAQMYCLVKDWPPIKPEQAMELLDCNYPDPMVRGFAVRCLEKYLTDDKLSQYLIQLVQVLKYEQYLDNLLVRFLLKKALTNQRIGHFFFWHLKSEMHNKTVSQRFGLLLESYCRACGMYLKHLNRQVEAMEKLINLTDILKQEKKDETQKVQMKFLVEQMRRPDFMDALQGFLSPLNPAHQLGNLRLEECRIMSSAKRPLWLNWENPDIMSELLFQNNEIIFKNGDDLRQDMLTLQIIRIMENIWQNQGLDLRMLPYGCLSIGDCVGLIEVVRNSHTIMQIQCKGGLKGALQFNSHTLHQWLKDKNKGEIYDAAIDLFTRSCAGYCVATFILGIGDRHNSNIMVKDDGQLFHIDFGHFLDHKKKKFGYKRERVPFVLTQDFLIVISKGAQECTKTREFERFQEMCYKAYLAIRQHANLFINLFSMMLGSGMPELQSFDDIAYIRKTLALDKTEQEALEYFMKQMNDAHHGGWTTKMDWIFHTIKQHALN
PI3Kα, sequence (P27986 whole entry partner): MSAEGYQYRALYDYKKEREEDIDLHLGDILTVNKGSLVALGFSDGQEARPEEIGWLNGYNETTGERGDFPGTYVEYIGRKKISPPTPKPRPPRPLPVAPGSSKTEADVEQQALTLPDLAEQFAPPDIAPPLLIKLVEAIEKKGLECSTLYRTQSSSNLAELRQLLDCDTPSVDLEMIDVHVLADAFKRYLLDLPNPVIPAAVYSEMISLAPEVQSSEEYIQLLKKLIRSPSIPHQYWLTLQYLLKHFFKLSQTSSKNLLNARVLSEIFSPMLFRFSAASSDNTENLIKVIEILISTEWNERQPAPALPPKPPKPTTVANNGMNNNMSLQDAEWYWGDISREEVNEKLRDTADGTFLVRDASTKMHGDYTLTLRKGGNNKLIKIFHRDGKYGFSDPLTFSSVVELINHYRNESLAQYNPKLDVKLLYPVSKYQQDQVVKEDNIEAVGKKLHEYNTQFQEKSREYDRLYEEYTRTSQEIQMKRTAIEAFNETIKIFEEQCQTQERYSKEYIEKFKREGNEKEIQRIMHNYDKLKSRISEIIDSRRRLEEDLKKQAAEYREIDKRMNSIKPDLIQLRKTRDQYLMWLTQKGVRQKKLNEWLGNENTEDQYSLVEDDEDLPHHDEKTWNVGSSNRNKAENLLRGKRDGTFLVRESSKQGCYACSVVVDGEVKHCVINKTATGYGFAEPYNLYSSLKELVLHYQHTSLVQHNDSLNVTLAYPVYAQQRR

Consider `CS(=O)(=O)Nc1cc(-c2ccc3ncc(C#N)c(Nc4cccc(Cl)c4F)c3c2)cnc1Cl` [Compound 10, N-[2-chloro-5-[4-(3-chloro-2-fluoro-anilino)-3-cyano-6-quinolyl]-3-pyridyl]methanesulfonamide], for which the GI50 in the assay with LOX IMVI is 75 to 125 nM; in the assay with CAKI-1 it was not above 75 nM; in the assay with U251 it was not above 75 nM. Also, the inhibition at 0.1 µM on PI3Kα was more than 90%.

`CS(=O)(=O)Nc1cc(-c2ccc3ncnc(Nc4cccc(Cl)c4F)c3c2)cnc1Cl` [Compound 6, N-[2-chloro-5-[4-(3-chloro-2-fluoro-anilino)quinazolin-6-yl]-3-pyridyl] methanesulfonamide]: the GI50 in the assay on LOX IMVI is 125 to 250 nM; in the assay on CAKI-1 it was not above 75 nM; in the assay with U251, more than 250 nM. On PI3Kα (PI3Kα), the 50% inhibitory concentration (IC50) was not above 2 nM. In addition, at PI3Kα, the inhibition at 0.1 µM was more than 90%.

A word on the GI50: it is the concentration at which growth is held to half of that of the control. A lower GI50 goes with more potent growth inhibition. As usually defined, the inhibition is how much of the control response was suppressed. Usually IC50 stands for the point on the concentration scale where inhibition reaches its midpoint. Low values mean inhibition by little substance, high ones a need for much substance.
